Laboratory results as given in PMC9516332 (Frontiers in Oncology, 2022).
Where two headings read alike, the source gives them in different places.

Test system: 134 cancer cell lines
Test: Cell viability assay (ATPlite, 72 hours), IC50 on cancer cell line panel

CC(=O)Nc1cccc(-n2c(=O)n(C3CC3)c(=O)c3c(Nc4ccc(I)cc4F)n(C)c(=O)c(C)c32)c1 [trametinib]
IC50 (Homo sapiens, MOLT-4, read-out: IC50 in cell proliferation assay, MOLT-4 cell line): 27600 nM
IC50 (Homo sapiens, MV4-11, read-out: IC50 in cell proliferation assay, MV4-11 cell line (FLT3 ITD)): 22 nM
IC50 (Homo sapiens, MeWo, read-out: IC50 in cell proliferation assay, MeWo cell line): 36 nM
IC50 (Homo sapiens, NCCIT, read-out: IC50 in cell proliferation assay, NCC-IT cell line): 871 nM
IC50 (Homo sapiens, NCI-H82, read-out: IC50 in cell proliferation assay, cell line NCI-H82): > 28200 nM
IC50 (Homo sapiens, NCI-H460, read-out: IC50 in cell proliferation assay, NCI-H460 cell line): 33 nM
IC50 (Homo sapiens, NCI-H661, read-out: IC50 in cell proliferation assay, NCI-H661 cell line): > 28200 nM
IC50 (Homo sapiens, NCI-H716, read-out: IC50 in cell proliferation assay, cell line NCI-H716 (FGFR2-COL14A1)): 34 nM
IC50 (Homo sapiens, NCI-H1650, read-out: IC50 in cell proliferation assay, NCI-H1650 cell line (EGFR exon19del)): 75 nM
IC50 (Homo sapiens, NCI-H1975, read-out: IC50 in cell proliferation assay, NCI-H1975 cell line (EGFR p.L858R + p.T790M)): 85 nM
IC50 (Homo sapiens, NCI-H2228, read-out: IC50 in cell proliferation assay, NCI-H2228 cell line (EML4-ALK)): 265 nM
IC50 (Homo sapiens, OVCAR-3, read-out: IC50 in cell proliferation assay, cell line OVCAR-3): > 28200 nM
IC50 (Homo sapiens, PFSK-1, read-out: IC50 in cell proliferation assay, cell line PFSK-1): > 28200 nM
IC50 (Homo sapiens, RL95-2, read-out: IC50 in cell proliferation assay, cell line RL95-2 (EGFR p.A289V)): 1.55 nM
IC50 (Homo sapiens, RPMI-7951, read-out: IC50 in cell proliferation assay, cell line RPMI-7951 (BRAF p.V600E)): 17 nM
IC50 (Homo sapiens, RS4-11, read-out: IC50 in cell proliferation assay, cell line RS4;11): > 28200 nM
IC50 (Homo sapiens, Rec1, read-out: IC50 in cell proliferation assay, cell line REC-1): 12300 nM
IC50 (Homo sapiens, SHP77, read-out: IC50 in cell proliferation assay, cell line SHP-77): > 28200 nM
IC50 (Homo sapiens, SK-BR-3, read-out: IC50 in cell proliferation assay, cell line SK-BR-3 (ERBB2 amplification)): > 31600 nM
IC50 (Homo sapiens, SK-N-AS, read-out: IC50 in cell proliferation assay, cell line SK-N-AS): 4 nM
IC50 (Homo sapiens, SK-N-FI, read-out: IC50 in cell proliferation assay, cell line SK-N-FI): 34 nM
IC50 (Homo sapiens, SK-N-MC, read-out: IC50 in cell proliferation assay, cell line SK-N-MC): > 31600 nM
IC50 (Homo sapiens, SK-N-SH, read-out: IC50 in cell proliferation assay, cell line SK-N-SH (ALK p.F1174L)): 17 nM
IC50 (Homo sapiens, SNU-5, read-out: IC50 in cell proliferation assay, cell line SNU-5 (MET amplification)): 12 nM
IC50 (Homo sapiens, SNU-16, read-out: IC50 in cell proliferation assay, cell line SNU-16 (FGFR2 amplification)): 146 nM
IC50 (Homo sapiens, SNU-C2B, read-out: IC50 in cell proliferation assay, cell line SNU-C2B (EGFR p.R165Q)): 41 nM
IC50 (Homo sapiens, SU-DHL-1, read-out: IC50 in cell proliferation assay, cell line SU-DHL-1 (NPM1-ALK)): 279 nM
IC50 (Homo sapiens, SU-DHL-6, read-out: IC50 in cell proliferation assay, cell line SU-DHL-6): 27 nM
IC50 (Homo sapiens, SUP-T1, read-out: IC50 in cell proliferation assay, cell line SUP-T1): > 28200 nM
IC50 (Homo sapiens, SW48, read-out: IC50 in cell proliferation assay, cell line SW48 (EGFR p.G719S)): 6 nM
IC50 (Homo sapiens, SW480, read-out: IC50 in cell proliferation assay, cell line SW480): 230 nM
IC50 (Homo sapiens, SW626, read-out: IC50 in cell proliferation assay, cell line SW626): 59 nM
IC50 (Homo sapiens, SW780, read-out: IC50 in cell proliferation assay, cell line SW780 (FGFR3-BAIAP2L1)): 20 nM
IC50 (Homo sapiens, SW837, read-out: IC50 in cell proliferation assay, cell line SW837): 98 nM
IC50 (Homo sapiens, SW872, read-out: IC50 in cell proliferation assay, cell line SW872 (BRAF p.V600E)): 23 nM
IC50 (Homo sapiens, SW900, read-out: IC50 in cell proliferation assay, cell line SW900): 111 nM
IC50 (Homo sapiens, SW948, read-out: IC50 in cell proliferation assay, cell line SW948): 26 nM
IC50 (Homo sapiens, SW982, read-out: IC50 in cell proliferation assay, cell line SW982 (BRAF p.V600E)): 929 nM
IC50 (Homo sapiens, SW-620, read-out: IC50 in cell proliferation assay, cell line SW620): 17 nM
IC50 (Homo sapiens, T98G, read-out: IC50 in cell proliferation assay, cell line T98G): > 28200 nM
IC50 (Homo sapiens, TCC-SUP, read-out: IC50 in cell proliferation assay, cell line TCCSUP): 1450 nM
IC50 (Homo sapiens, THP-1, read-out: IC50 in cell proliferation assay, cell line THP-1): 1 nM
IC50 (Homo sapiens, U2OS, read-out: IC50 in cell proliferation assay, cell line U2OS): 4 nM
IC50 (Homo sapiens, U-87 MG, read-out: IC50 in cell proliferation assay, cell line U-87MG ATCC): 245 nM
IC50 (Homo sapiens, U-118-MG, read-out: IC50 in cell proliferation assay, cell line U-118MG): 151 nM
IC50 (Homo sapiens, UMUC3, read-out: IC50 in cell proliferation assay, cell line UM-UC-3): 21 nM
IC50 (Hs766T, read-out: IC50 in cell proliferation assay, Hs 766T cell line): 2.34 nM
IC50 (L-82, read-out: IC50 in cell proliferation assay, L-82 cell line (NPM1-ALK)): 86 nM
IC50 (Rh30, read-out: IC50 in cell proliferation assay, cell line Rh30): 237 nM
IC50 (read-out: IC50 in cell proliferation assay, 11-18 cell line (EGFR p.L858R)): > 31600 nM
IC50 (read-out: IC50 in cell proliferation assay, Hs 852.T cell line): 218 nM
IC50 (read-out: IC50 in cell proliferation assay, JAR cell line): > 28200 nM
IC50 (read-out: IC50 in cell proliferation assay, cell line 5637): 297 nM
IC50 (read-out: IC50 in cell proliferation assay, cell line A-388): 99 nM
IC50 (read-out: IC50 in cell proliferation assay, cell line DB): 18900 nM
IC50 (read-out: IC50 in cell proliferation assay, cell line DEL (NPM1-ALK)): > 31600 nM
IC50 (read-out: IC50 in cell proliferation assay, cell line ES-2 (BRAF p.V600E)): 7 nM
IC50 (read-out: IC50 in cell proliferation assay, cell line PA-1): 666 nM
IC50 (read-out: IC50 in cell proliferation assay, cell line PC-3): > 28200 nM
IC50 (read-out: IC50 in cell proliferation assay, cell line RD): 4 nM
IC50 (read-out: IC50 in cell proliferation assay, cell line RKO (BRAF p.V600E)): 8 nM
IC50 (read-out: IC50 in cell proliferation assay, cell line RL): > 28200 nM
IC50 (read-out: IC50 in cell proliferation assay, cell line RT-4 (FGFR3-TACC3)): 72 nM
IC50 (read-out: IC50 in cell proliferation assay, cell line SR (NPM1-ALK)): 936 nM
IC50 (read-out: IC50 in cell proliferation assay, cell line T24): 5 nM
IC50 (read-out: IC50 in cell proliferation assay, cell line TT (RET p.C634W)): 1050 nM
IC50 (read-out: IC50 in cell proliferation assay, cell line VA-ES-BJ): 89 nM
